Test results reported in PMC8067314, “Uptake of Vitamins D2, D3, D4, D5, D6, and D7 Solubilized in Mixed Micelles by Human Intestinal Cells, Caco-2, an Enhancing Effect of Lysophosphatidylcholine on the Cellular Uptake, and Estimation of Vitamins D’ Biological Activities” (Nutrients, 2021).
Where two headings read alike, the source gives them in different places.

What was measured:
[1] = test system: rats; details: cited from earlier work
[2] = test system: dispersed Caco-2 cells; assay: Uptake of vitamin D from mixed micelles by dispersed Caco-2 cells; assay type: in vitro ADME, human; details: NoPC mixed micelles, 2 h, cells dispersed with trypsin; compared among vitamins D2–D7
Text: Since 2001, we have reported that lysophospholipids enhance the uptake of micellar carotenoids in Caco-2 cells. […] In the present study, using the same method, we examined whether the mechanism for the enhancing effect of lysophosphatidylcholine could be adapted to vitamin D, as well. To evaluate the impact of the degree of cell-cell adhesion/cell-matrix adhesion on vitamin D uptake by cells, we prepared in two different ways: i) dispersed Caco-2 cells without cell-cell adhesion/cell-matrix adhesion and ii) Caco-2 cells with insufficient cell-cell adhesion.
(i): The dispersed cells were prepared by trypsin treatment. After collecting the cells in the culture medium, the number of cells was counted and diluted with the medium. The cells were washed two times with FBS-free DMEM and then seeded in culture plate of 24-well for suspension cultures (SC plate; Greiner Bio-One, Frickenhausen, Germany) at a density of 15 × 10^4 cells per well containing the FBS-free DMEM (0.5 mL).
Subsequent operations are common to the two models of cells. The medium consisting of mixed micellar vitamin D (0.5 mL) was added to adhered cells or dispersed cells in individual wells containing FBS-free DMEM (0.5 mL), resulting in a total medium volume of 1.0 mL/well, and the final start concentrations of mixed micellar components were one-half the initial concentration. The cells were incubated in the same conditions as described above, i.e., in a CO2 incubator at 37 °C for 2 h, and then the cells were washed with 2 mM taurocholate/PBS, followed by two times with PBS. The vitamin D uptake and residual mixed micellar vitamin D were evaluated as the previous subsection, but the filtrate of residual mixed micellar vitamin D was diluted with a 2x-volume of H2O. The cellular protein content was also determined as above.

[3] = test system: differentiated Caco-2 cells; assay: Uptake of vitamin D solubilized in mixed micelles by differentiated Caco-2 cells; assay type: in vitro ADME, human; details: 2 h; for Vitamin D uptake by differentiated Caco-2 cells: vitamin D 1 μM, compared among vitamins D2–D7
Procedure: Caco-2 cells were purchased from the American Type Culture Collection (Rockville, MD, USA). DMEM containing 10% FBS, 4 mM L-glutamine, penicillin and streptomycin (40 units/mL and 40 μg/mL, respectively), and nonessential amino acids (0.1 mM) were used as the culture medium. The cells were grown in the culture medium at 37 °C in a humidified atmosphere of 5% CO2 in air and then were cultured by passaging two times per week. We used differentiated Caco-2 cells, which have been widely used as a human intestinal model, for vitamin D uptake experiments. To induce differentiation of Caco-2 cells, the cells were seeded in culture plate of 24-well at a density of 5 × 10^4 cells per well containing 0.5 mL of the culture medium. Then, the medium was changed with fresh medium two times per week for 20–22 d. We have previously reported that the cell monolayers obtained by this method had sufficient cell-cell adhesion.
The mixed micelles were prepared as described in our previous reports. All of the components, i.e., taurocholate, monoolein, oleic acid, lysophosphatidylcholine, and vitamin D, were dissolved in an appropriate solvent. Portions of these solvent solutions were moved to glass tubes. The solvent was dried up with argon gas and further centrifugal evaporator. The dry matter was dispersed into FBS-free DMEM (same as the culture medium described above but without FBS). To remove any vitamin D not solubilized in the micelles, the resulting solution was passed through a filter (the pore size was 0.2-μm). The materials of mixed micelle and their concentrations were taurocholate (2 mM), monoolein (100 μM), oleic acid (33 μM), lysophosphatidylcholine (0 or 50 μM), and vitamin D (1 μM), respectively, unless otherwise stated. The concentrations were same as those used in our previous study. […] One part of the mixed micelles was diluted with four parts of methylene chloride/methyl alcohol (1:4, v/v), and then a portion (30 μL) was analyzed by high-pressure liquid chromatography (HPLC) as explained in the “2.8. […]

[4] = target: T1, Niemann-Pick C1-like 1 (NPC1L1) (Homo sapiens, UniProt Q9UHC9); assay: Inhibitory effect of ezetimibe on vitamin D uptake by differentiated Caco-2 cells (facilitated diffusion); assay type: in vitro ADME; details: 150 μM ezetimibe pretreatment 2 h
T1 construct: host or cells: differentiated Caco-2 cells
T1 sequence (Q9UHC9 22-1359): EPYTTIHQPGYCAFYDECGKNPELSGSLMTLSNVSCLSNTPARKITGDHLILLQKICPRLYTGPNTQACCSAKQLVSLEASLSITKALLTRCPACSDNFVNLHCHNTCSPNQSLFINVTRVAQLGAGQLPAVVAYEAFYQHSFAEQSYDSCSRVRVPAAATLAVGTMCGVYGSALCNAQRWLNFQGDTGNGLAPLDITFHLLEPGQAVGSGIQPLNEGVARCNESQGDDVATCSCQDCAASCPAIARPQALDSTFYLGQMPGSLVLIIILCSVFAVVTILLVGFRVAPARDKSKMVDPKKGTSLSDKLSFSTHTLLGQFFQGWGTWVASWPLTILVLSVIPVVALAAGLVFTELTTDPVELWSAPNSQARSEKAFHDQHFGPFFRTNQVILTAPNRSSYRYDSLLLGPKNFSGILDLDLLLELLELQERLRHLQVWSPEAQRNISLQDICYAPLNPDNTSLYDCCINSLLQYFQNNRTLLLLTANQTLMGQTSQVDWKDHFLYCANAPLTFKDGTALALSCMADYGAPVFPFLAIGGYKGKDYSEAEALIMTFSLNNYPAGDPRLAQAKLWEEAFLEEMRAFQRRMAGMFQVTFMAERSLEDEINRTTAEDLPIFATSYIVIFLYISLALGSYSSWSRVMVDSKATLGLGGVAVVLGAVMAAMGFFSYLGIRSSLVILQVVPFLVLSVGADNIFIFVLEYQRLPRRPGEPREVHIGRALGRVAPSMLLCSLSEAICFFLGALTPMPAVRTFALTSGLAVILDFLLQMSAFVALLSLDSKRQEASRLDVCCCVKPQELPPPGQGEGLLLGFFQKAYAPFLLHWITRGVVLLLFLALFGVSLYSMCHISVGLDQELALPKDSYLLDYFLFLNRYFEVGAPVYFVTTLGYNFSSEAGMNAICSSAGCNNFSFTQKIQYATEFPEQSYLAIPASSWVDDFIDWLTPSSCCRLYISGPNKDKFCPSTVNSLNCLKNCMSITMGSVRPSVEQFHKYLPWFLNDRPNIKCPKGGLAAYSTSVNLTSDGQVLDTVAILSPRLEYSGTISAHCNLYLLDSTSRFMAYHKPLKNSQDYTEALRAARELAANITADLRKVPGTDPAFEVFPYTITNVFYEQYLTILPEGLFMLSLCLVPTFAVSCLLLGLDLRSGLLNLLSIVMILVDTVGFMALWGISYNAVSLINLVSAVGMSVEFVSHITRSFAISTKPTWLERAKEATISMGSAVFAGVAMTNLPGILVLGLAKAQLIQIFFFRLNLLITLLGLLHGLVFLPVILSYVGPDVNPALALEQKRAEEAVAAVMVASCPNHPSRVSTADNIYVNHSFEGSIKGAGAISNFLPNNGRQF
Procedure: In the present study, we evaluated the involvement of facilitated diffusion in the cellular uptake of each mixed micellar vitamin D2–D7 by using ezetimibe, an inhibitor of the protein Niemann-Pick C1-like 1 (NPC1L1). Ezetimibe was dissolved in dimethyl sulfoxide (DMSO), and then was added at a final concentration of 150 μM to the culture medium. At this time, the final concentration of DMSO was 1.5% (v/v). The differentiated Caco-2 cells were preincubated at 37 °C for 2 h with ezetimibe-containing culture medium (0.5 mL). The cells were washed two times with FBS-free DMEM (0.5 mL) and then treated with the medium containing mixed micellar vitamin D (0.5 mL) for 2 h, as described above. After treatment, cellular vitamin D, residual mixed micellar vitamin D, and the cellular protein content were evaluated as described in the previous subsection.

[5] = test system: differentiated Caco-2 cells; assay: Cellular cholesterol in differentiated Caco-2 cells treated with mixed micelles containing lysophosphatidylcholine; assay type: cell-based, human; details: 2 h, no vitamin D
Procedure: The saponification reaction was performed as follows. A portion (0.8 mL) of the cell homogenate was mixed with 200 μL of 40 μM β-sitosterol/ethyl alcohol as an internal standard, 85 μL of 10 M KOH, and 0.6 mL ethyl alcohol and then incubated at 60 °C for 2 h under argon gas. After cooling the reaction solution, cholesterol was extracted with ethyl acetate and n-hexane in the same manner as the extraction of vitamin D described above. The extract was additionally washed with 0.8 mL H2O before the solvent completely dried and then dissolved in 200 μL of methylene chloride/methyl alcohol/H2O (9:81:10, v/v/v). An aliquot (40 μL) was then subjected to HPLC as described in the “2.8. HPLC Analysis” subsection below. The cellular protein content was also determined as above.
Vitamin D and cholesterol were analyzed by using the HPLC system and columns which were the same as in our previous report. Mobile phase X was ethanenitrile/methyl alcohol/H2O (75:15:10, v/v/v), mobile phase Y was methyl alcohol/ethyl acetate (70:30, v/v), and mobile phase Z was methyl alcohol/isopropyl alcohol (70:30, v/v). These mobile phases contained 0.1% ammonium acetate. […] Vitamin D and cholesterol were quantified from the peak area at 265 nm and 210 nm, respectively, by using the respective calibration curve of the authentic standard.

C=C1CC[C@H](O)C/C1=C/C=C1\CCC[C@]2(C)[C@@H]([C@H](C)CCCC(C)C)CC[C@@H]12 [Vitamin D3]
Anti-rickets activity, comparison of vitamins D ([1]; line test, vitamins D provided as a crystal): highest activities and were similar

C=C1CCC(O)C/C1=C/C=C1\CCCC2(C)C1CCC2C(C)CC[C@H](C)C(C)C (stereo partly drawn) [Vitamin D4]
Vitamin D uptake by dispersed Caco-2 cells [2]: higher than those of vitamins D2 and D3 | Anti-rickets activity as percentage of that of vitamin D2 ([1]; line test, crystal): 50–75%

C=C1CCC(O)C/C1=C/C=C1\CCCC2(C)C1CCC2C(C)CCC(CC)C(C)C (stereo not drawn) [Vitamin D5]
Vitamin D uptake by dispersed Caco-2 cells [2]: no tendency toward decreased vitamin-D5 uptake | Anti-rickets activity relative to that of vitamin D2 ([1]; UV-irradiated precursors, not crystals): 1/70 | Anti-rickets activity relative to that of vitamins D2 and D3 as UV irradiation precursors ([1]; UV-irradiated precursors): 1/40 | Anti-rickets activity relative to that of vitamin D3 ([1]; line test, crystal): 1/180 | Vitamin D uptake by differentiated Caco-2 cells ([3]; NoPC mixed micelles (without lysophosphatidylcholine)): lower by vitamin D5 than by other vitamins D | Vitamin D uptake by differentiated Caco-2 cells ([3]; lysoPC mixed micelles (lysophosphatidylcholine 50 μM)): tended to be lower than that of other vitamins D

C=C1CCC(O)C/C1=C/C=C1\CCCC2(C)C1CCC2C(C)/C=C/C(CC)C(C)C (stereo not drawn) [Vitamin D6]
Vitamin D uptake by dispersed Caco-2 cells [2]: higher than those of vitamins D2 and D3 | Anti-rickets activity ([1]; UV-irradiated precursors): little or no activity

C=C1CCC(O)C/C1=C/C=C1\CCCC2(C)C1CCC2C(C)CC[C@@H](C)C(C)C (stereo partly drawn) [Vitamin D7]
Vitamin D uptake by dispersed Caco-2 cells [2]: higher than those of vitamins D2 and D3 | Anti-rickets activity relative to that of vitamin D2 ([1]; UV-irradiated precursors): 1/10

O=C1[C@H](CC[C@H](O)c2ccc(F)cc2)[C@@H](c2ccc(O)cc2)N1c1ccc(F)cc1 [ezetimibe]
Vitamin-D3 uptake blocked by ezetimibe [4]: 20–30% | inhibition at 150 µM ([4]; relative to vehicle control, NoPC and lysoPC mixed micelles, read-out: Inhibition of the uptakes of vitamins D2–D7 by ezetimibe): ~20%

CCCCCCCCCCCCCCCC(=O)OC[C@@H](O)COP(=O)([O-])OCC[N+](C)(C)C [lysophosphatidylcholine, 1-16:0-2-OH-sn-glycerol-3-phosphocholine]
Enhancement of vitamin D uptake by lysophosphatidylcholine compared with NoPC ([3]; differentiated Caco-2 cells, lysophosphatidylcholine 50 μM in mixed micelles, average for six vitamin D species): 2.5 times | Effect on cellular cholesterol amounts ([5]; lysophosphatidylcholine at <100 μM in mixed micelles): tended to decrease the cellular cholesterol, but the decrease was not significant | Effect on cellular cholesterol amounts ([5]; lysophosphatidylcholine at >150 μM in mixed micelles): significantly decreased the cellular cholesterol
